{
  "source": "paper PMC12801355",
  "about": "“Peptide Amphiphiles Hitchhike on Endogenous Biomolecules for Enhanced Cancer Imaging and Therapy” (Advanced Materials (Deerfield Beach, Fla.), 2025)",
  "key": {"RG2 xenografts": {"system": "RG2 xenografts", "assay": "Antitumor effect, RG2 xenografts in nude mice", "format": "in vivo, mouse", "conditions": "1 mg kg^−1 IV, 5 doses", "description": "All experiments were approved by the Oregon Health and Science University (OHSU) Institutional Animal Care and Use Committee (IACUC) (TR01_IP00000674) and conformed to the guidelines set by the United States Animal Welfare Act and the National Institutes of Health. Mice were aged between 3 and 8 months and 20–30 g in weight and were housed in specific pathogen free cages. Human, mouse, or rat cells were injected into nude (The Jackson Laboratory, 002019), NSG mice (The Jackson Laboratory, 005557), Balb/c mice (The Jackson Laboratory, 000651), or C57Bl/6J mice (The Jackson Laboratory, 000664), as specified below. Cells were injected in 100 µL sterile DMEM at a concentration of 0.5–1×10^7 cells mL^−1, unless otherwise specified. For tumor accumulation and biodistribution studies, A375 cells were injected intradermally into the left ears of NSG mice (The Jackson Laboratory, 005557). MCF7 cells were injected into the mammary fat pad of NSG mice. […]\n(§1) Mice were injected with 4T1, RG2, or HCT‐116 cells as described above. […] Tumor size and mouse weight were monitored 2–3 times per week until a humane endpoint (tumor size ≈2 cm or >20% body weight loss) or the study endpoint (18, 25, or 120 days for 4T1, RG2, and HCT‐116 studies, respectively). Tumor size was measured in two directions with a caliper rounded to the nearest tenth of a mm. Volume was calculated as a basic sphere of 4/3πr^3."}, "HCT‐116 tumor": {"system": "HCT‐116 tumor", "description": "(§2) All experiments were approved by the Oregon Health and Science University (OHSU) Institutional Animal Care and Use Committee (IACUC) (TR01_IP00000674) and conformed to the guidelines set by the United States Animal Welfare Act and the National Institutes of Health. Mice were aged between 3 and 8 months and 20–30 g in weight and were housed in specific pathogen free cages. Human, mouse, or rat cells were injected into nude (The Jackson Laboratory, 002019), NSG mice (The Jackson Laboratory, 005557), Balb/c mice (The Jackson Laboratory, 000651), or C57Bl/6J mice (The Jackson Laboratory, 000664), as specified below. Cells were injected in 100 µL sterile DMEM at a concentration of 0.5–1×10^7 cells mL^−1, unless otherwise specified. For tumor accumulation and biodistribution studies, A375 cells were injected intradermally into the left ears of NSG mice (The Jackson Laboratory, 005557). MCF7 cells were injected into the mammary fat pad of NSG mice. HCT‐116, RG2, and HeLa (wild type or LDL‐R knockout) cells were subcutaneously injected into the left or both flanks of NSG mice. 4T1 cells were injected into the mammary fat pad of Balb/c mice. LLC1, MC38, and TRAMP‐C2 (wild type or SR‐B1 knockout) were injected into C57Bl/6J mice. Patient‐derived xenografts were generated by injecting the patient‐derived cancer cells subcutaneously into the left flank of NSG mice. ApoA1 and LDL‐R knockout mice were purchased from the Jackson Laboratory (002055 and 002207, respectively). MC38 cells were subcutaneously injected into both flanks of these mice. Apc^min and MMTV‐PyMT mice were purchased from the Jackson Laboratory (002020 and 002374). For antitumor activity studies, 4T1 cells were injected into the mammary fat pad of Balb/c mice. HCT‐116 and RG2 cells were subcutaneously injected into the left flanks of nude mice. For antitumor activity studies, HCT‐116 cells were injected in a 1:1 mixture of DMEM and Matrigel (Life Science 354263).\nas §1, with “above. Mice were then treated intravenously with the free MMAE (0.1 or 0.3 mg kg^−1), SA‐E‐MMAE (0.3, 0.6, 0.8, or 1 mg kg^−1) or PBS (10 mM, pH 7.4). 5 doses were given every 2–3 days over 11 days.” for “above.”"}, "[1]": {"assay": "Fluorescence polarization of PA nanostructures", "format": "physicochemical", "conditions": "ICG‐conjugated SA‐E (10 mol%) mixed with MMAE‐conjugated SA‐E (90 mol%), 200 µM total; mean ± SEM", "description": "ICG (10 mol%) containing PA micelles were prepared by mixing ICG‐conjugated PAs with unconjugated or MMAE‐conjugated PAs to achieve a final concentration of 20 µM ICG‐conjugated PAs and 200 µM of total PAs. Aliquots of 100 µL were added to a 96‐well plate (3 wells for each PA). Fluorescence polarization measurements were performed using a microplate reader (TECAN Spark 20 M). The corrected parallel intensity (I par) and perpendicular intensity (Iper) were used to calculate the fluorescence anisotropy (r) using the following equation: r = […]."}, "4T1 tumor": {"system": "4T1 tumor", "assay": "Antitumor effect, 4T1 orthotopic mouse model", "description": "as §2\nas §1, with “above. Mice were then treated intravenously with the free MMAE (0.1 or 0.3 mg kg^−1), SA‐E‐MMAE (0.3, 0.6, 0.8, or 1 mg kg^−1) or PBS (10 mM, pH 7.4). 5 doses were given every 2–3 days over 11 days.” for “above.”"}, "[2]": {"system": "LPs (HDL, LDL, VLDL) and albumin in pooled human plasma", "assay": "FPLC of PAs in 10% human plasma", "conditions": "MMAE conjugated SA‐E, 250 µM, detection at 250 nm", "quoted_text": "FPLC experiments were performed using SA‐E, SA‐K, or No‐SA conjugated with ICG or SA‐E conjugated with MMAE at a final concentration of 250 µM in filtered PBS (10 mM, pH 7.4) with or without human plasma or purified LPs or albumin. For analysis of SA‐E interactions with purified LPs, VLDL, LDL, HDL, and human serum albumin were diluted in filtered PBS to approximate concentrations found in 10% human plasma: 0.0025, 0.13, 0.05, and 5mg mL^−1, respectively. SA‐E was incubated with the purified LP/protein mixture for 30 min at 37 °C before injection. For analysis of plasma interactions, PAs or No‐SA were incubated in PBS containing 10% pooled human plasma for 30 min at 37 °C before injection. The total volume injected for all samples was 400 µL. All data was collected on an ÄKTA pure chromatography system using the following running conditions: size exclusion chromatography on a Superose 6 Increase 10/300 GL column with a column volume (CV) of 30 mL, pre‐column pressure limit of 5 MPa, delta‐column pressure limit of 2.6 MPa, flow rate of 0.75 mL min^−1, in 100% PBS. The sample running method included first an equilibration step before injection of the sample with 100% PBS for 0.5 CV, followed by sample application via 1 mL capillary loop in 100% PBS, and finished with a linear elution consisting of 2 CV collected in 1 mL fractions. The UV‐Vis detector wavelengths were 250, 280, and 700 nm to detect MMAE, all proteins/LPs, and ICG, respectively."}},
  "note": "Like-named read-outs stand apart in the source and are kept apart here. *1 amine or outer side, *2 acyl side, *3 side chain or, on linkers, in order; H or OH if unused. Where a SMILES comes first, the peptide text is derived from it. Bridges are numbered along the chain shown (N, C = ends). Roman numbers before positions name the chains, in order. [ ]: non-standard residue; d: D form. The star is where a group is joined. Hexanoyl(6-succinimido-3yl) = O=C1CC([*:1])C(=O)N1CCCCCC(=O)[*:2]; Dolaproine = CO[C@@H]([C@@H]1CCCN1)[C@@H](C)C(=O)O; Dil = CC[C@H](C)[C@H](NC)[C@@H](CC(=O)O)OC; PABC = O=C(OCc1ccc(N[*:1])cc1)[*:2]; Palmitoyl = CCCCCCCCCCCCCCCC(=O)*; X1 = C[C@@H](N*)[C@@H](O)c1ccccc1; Cit = NC(=O)NCCC[C@H](N)C(=O)O; NMeV = CN[C@H](C(=O)O)C(C)C",
  "data": [
    {"compound": "CCCCCCCCCCCCCCCC(=O)NCC(=O)NCC(=O)NCC(=O)N[C@@H](Cc1c[nH]cn1)C(=O)N[C@@H](C)C(=O)N[C@@H](C)C(=O)N[C@@H](CC(N)=O)C(=O)NCC(=O)N[C@@H](CCC(=O)O)C(=O)N[C@@H](CCC(=O)O)C(=O)N[C@@H](CSC1CC(=O)N(CCCCCC(=O)N[C@H](C(=O)N[C@@H](CCCNC(N)=O)C(=O)Nc2ccc(COC(=O)N(C)[C@H](C(=O)N[C@H](C(=O)N(C)[C@@H]([C@@H](C)CC)[C@@H](CC(=O)N3CCC[C@H]3[C@H](OC)[C@@H](C)C(=O)N[C@H](C)[C@@H](O)c3ccccc3)OC)C(C)C)C(C)C)cc2)C(C)C)C1=O)C(=O)N[C@@H](CCC(=O)O)C(=O)O", "note": "(some centres unmarked) [SA‐E‐MMAE] (I: Palmitoyl-GGGHAANGEECE-OH / II: V[Cit][PABC][NMeV]V[Dil][Dolaproine]-X1; linker I:11-II:N via Hexanoyl(6-succinimido-3yl); C-terminus assumed)", "values": [
      {"measurement": "reduction in the tumor volume", "setting": "RG2 xenografts; n = 4, compared to the control", "value": "around 80%"},
      {"measurement": "body weight", "setting": "RG2 xenografts; at the beginning of the therapy, overall tolerated", "value": "slight weight loss"},
      {"measurement": "overall survival", "setting": "HCT‐116 tumor; 0.8 mg kg^−1 IV, 5 doses, n = 4, log‐rank", "value": "significantly improved the overall survival"},
      {"measurement": "effect on tumor size", "setting": "HCT‐116 tumor; 0.8 mg kg^−1 of MMAE IV, days 11, 14, 17, 19, 21, all mice, n = 4", "value": "reduction in the tumor size"},
      {"measurement": "average tumor volume", "setting": "HCT‐116 tumor; day 21, end of treatment", "value": "≈ 150 mm^3"},
      {"measurement": "average tumor volume", "setting": "HCT‐116 tumor; day 33", "value": "≈ 40 mm^3"},
      {"measurement": "tumor‐free mice", "setting": "HCT‐116 tumor; day 120", "value": "one mouse remained tumor‐free on day 120"},
      {"measurement": "fluorescence anisotropy of ICG in micelles", "setting": "[1]", "value": "0.188 ± 0.002"},
      {"measurement": "tumor growth reduction", "setting": "4T1 tumor; 0.6 mg kg^−1 (based on MMAE) IV, 5 doses over 11 days, n = 5, versus free MMAE and PBS", "value": "≈ 75%"},
      {"measurement": "body weight", "setting": "4T1 tumor; 0.6 mg kg^−1 IV, 5 doses", "value": "no significant weight loss"},
      {"measurement": "plasma component bound (FPLC)", "setting": "[2]", "value": "assembled with HDL"}
    ]}
  ]
}
